Results: PMC6863074 (Journal of medicinal chemistry, 2015)
Values after ≈ are worked out from the molar mass of the structure shown. Each block holds one compound with its values, some of them ahead of it.

Legend:
S. aureus ATCC 29213 [1] = conditions: S. aureus ATCC 29213, MSSA quality-control strain; cited from earlier work
S. epidermis ATCC 35547 = test: MIC determination, S. epidermis ATCC 35547; type: cell-based
S. aureus ATCC 29213 [2] = test: MIC determination, S. aureus ATCC 29213; conditions: S. aureus ATCC 29213 MIC screening; active = MIC ≤ 8 μg/mL
HepG2 cells = test: XTT cytotoxicity assay with HepG2 cells
S. aureus ATCC 29213 [3] = test: Minimal-bactericidal concentration; conditions: S. aureus ATCC 29213 (MSSA); MBC = >1000-fold reduction in colonies
Full PK study in mice = conditions: mouse

SMILES: CC(=O)NC[C@H]1CN(c2ccc(N3CCOCC3)c(F)c2)C(=O)O1 [linezolid]
MIC (S. aureus ATCC 29213 [1]): 4 mg/L (≈ 11.9 µM)

SMILES: CC(C)Nc1c[nH]nc1-c1nc(-c2ccc(Oc3ccc(C(F)(F)F)cc3)cc2)no1 [65b, N-Isopropyl-3-(3-(4-(4-(trifluoromethyl)phenoxy)phenyl)-1,2,4-oxadiazol-5-yl)-1H-pyrazol-4-amine]
MIC (S. epidermis ATCC 35547): > 128 mg/L
antibacterial activity (in words) (S. aureus ATCC 29213 [2]): active
IC50 (HepG2 cells; Homo sapiens, HepG2, read-out: XTT HepG2 IC50): 3.9 ± 0.8 mg/L (≈ 9.08 µM)

clearance as % of hepatic blood flow (Full PK study in mice; 20 mg/kg iv): less than 10%
t1/2α (Full PK study in mice; 20 mg/kg iv): t1/2α = 0.54 min
t1/2dist (Full PK study in mice; 20 mg/kg po): t1/2dist = 15.9 h
fold higher volume of distribution than 1 (Full PK study in mice; versus compound 1): 13 fold
fold lower clearance than 1 (Full PK study in mice; versus compound 1): 3 fold
SMILES: FC(F)(F)c1ccc(Oc2ccc(-c3noc(-c4ccc5[nH]ccc5c4)n3)cc2)cc1 [75b, 5-(1H-Indol-5-yl)-3-(4-(4-(trifluoromethyl)phenoxy)phenyl)-1,2,4-oxadiazole]
fold less toxic compared to the lead 1 (XTT HepG2) (HepG2 cells; HepG2 cells, versus compound 1): 5 fold
MBC relative to MIC (S. aureus ATCC 29213 [3]): the same as the MIC value
